Data set [1] deals with CNE1 (human nasopharyngeal carcinoma, cisplatin resistance). Description: MTT cytotoxicity, CNE1. In kind it is cell-based. The following applies: 72 h. How it is done:
(§1) The cytotoxicities of the gold(III) compounds toward several human cancer cell lines including nasopharyngeal carcinoma (SUNE1, and its cisplatin variant CNE1), hepatocellular carcinoma (HepG2), and cervical epitheloid carcinoma (HeLa) were determined using a well-established MTT assay.

The test system of data set [2] is SUNE1 (human nasopharyngeal carcinoma, cisplatin sensitive). Description: MTT cytotoxicity, SUNE1. In kind it is cell-based. The conditions noted are these: 72 h. How it is done: as §1
In data set [3] the test system is HeLa (human cervical epithelioid carcinoma). Description: MTT cytotoxicity, HeLa. It counts as cell-based. The conditions noted are these: 72 h. How it is done: as §1
Data set [4] relates to HepG2 (human hepatocellular carcinoma). The data set is described as follows: MTT cytotoxicity, HepG2. In kind it is cell-based. The following applies: 72 h. How it is done:
as §1

Data set [5] is described as follows: Cyclic voltammetry in DMF. In kind it is physicochemical. The conditions noted are these: comparison value. An excerpt:
The electrochemical properties of the gold(III) compounds in DMF were studied by cyclic voltammetry. As compared to KAuCl4 [E°gold(III)→gold(I)=−0.4 V], the substantially more cathodic potentials of −1.43 to −1.83 V vs Cp2Fe^+/0 required for the gold(III) reduction in all the gold(III) compounds is consistent with stabilization of gold(III) by the dianionic CNC ligand.

For the next data set, the system named is SUNE1 cells. The data set is described as follows: Cell cycle analysis by flow cytometry (propidium iodide). It counts as cell-based, human. The conditions noted are these: 24- or 48-h incubation. As for the experimental part: To find out whether cellular DNA is a major target of the gold(III) compounds, we studied the cell cycle profiles of 3d-treated cancer cells. Cell cycle analysis was performed by assessing the DNA content of cells stained with propidium iodide using flow cytometry. This enables quantification of the total cellular populations in the different phases of the cell cycle (G0/G1, S and G2/M). […] Compound 3d appears to affect its cytotoxicity via some alternative mechanistic pathways.
(In general: Flow cytometry measures light scatter and fluorescence of single cells or particles in a stream.)

For the next data set, the system named is nude mice. Description: In vivo toxicity studies in nude mice.
The test system of data set [6] is several human cancer cell lines. Description: Cytotoxic activities against several cancer cell lines (MTT). In kind it is cell-based. How it is done: as §1
A number of structurally distinct gold(III)-phosphino compounds (3a-g) were synthesized and assayed for cytotoxic activities against several cancer cell lines (see Table 1). […] Whereas, shortening (n=1 or 2) or lengthening (n=4, 5 or 6) the hydrocarbon linker reduced the cytotoxicity, with IC50 values increasing by at least an order of magnitude.

The subject of another data set is 100-base pair DNA ladder. Description: Gel mobility shift assay (DNA intercalation). In kind it is binding. The following applies: 1.5% agarose gel, DNA 50 μM bp-1. As for the experimental part:
A gel mobility shift assay was employed to determine the intercalating property 3d [E. C. Long, J. K. Barton, Acc. Chem. Res. 1990, 23, 271] to evaluate the effect 3d, had upon the DNA binding affinities. A 100-base pair DNA ladder treated with 3d, or ethidium bromide (EB, DNA intercalator) as well as a control were resolved by agarose gel electrophoresis. Briefly, gel electrophoresis of 100-bp DNA ladder on a 1.5% (w/v) agarose gel was performed showing the mobility of DNA (50 μM bp-1) in the absence or presence of ethidium bromide (EB), or compound 3d. […] The bound DNA would have lower mobility compared to that of the free DNA.

The test system of another data set is cancers. The data set is described as follows: Potency against cancers compared with cis-platin.
Data set [7] can be described thus: Solution stability (UV-vis, NMR). The conditions noted are these: 24 h. It counts as physicochemical.

The results in this text go back to patent US7632827B2, “Anti-cancer phosphine containing [AuIIIm(CNC)mL]n+ complexes and derivatives thereof and methods for treating cancer using such compositions” (The University of Hong Kong, priority 2006, dated 2009).

By IC50 is commonly meant the midpoint of a concentration-inhibition curve. For `c1ccc([P+](c2ccccc2)(c2ccccc2)[Au-]23[c]4ccccc4-c4cccc([n+]42)-c2cccc[c]23)cc1` [3a], the IC50 in data set [1] was 11000 ± 2000 nM; in data set [2], 17000 ± 2000 nM. For the same compound, in data set [1], the “IC50 ratio (CNE1/SUNE1), resistance factor” value (from here on “IC50 ratio (CNE1/SUNE1)”) is 0.65.
As for `O=S(=O)([O-])C(F)(F)F.O=S(=O)([O-])C(F)(F)F.c1ccc([P+](CCCC[P+](c2ccccc2)(c2ccccc2)[Au-]23[c]4ccccc4-c4cccc([n+]42)-c2cccc[c]23)(c2ccccc2)[Au-]23[c]4ccccc4-c4cccc([n+]42)-c2cccc[c]23)cc1` [3e, [Au2(CNC)2(μ-dppb)](CF3SO3)2], the values for the IC50 in [1], in data set [3] and in [2] were 2200 ± 300 nM, 2400 ± 200 nM and 1500 ± 200 nM, respectively. In addition, the “IC50 ratio (CNE1/SUNE1)” value in data set [1] was 1.5.
On the same counts, the results for `O=S(=O)([O-])C(F)(F)F.O=S(=O)([O-])C(F)(F)F.c1ccc([P+](CCCCC[P+](c2ccccc2)(c2ccccc2)[Au-]23[c]4ccccc4-c4cccc([n+]42)-c2cccc[c]23)(c2ccccc2)[Au-]23[c]4ccccc4-c4cccc([n+]42)-c2cccc[c]23)cc1` [3f, [Au2(CNC)2(μ-dpppe)](CF3SO3)2] are 2500 ± 300 nM, 1500 ± 300 nM, 1600 ± 300 nM and 1.6.
As to `O=S(=O)([O-])C(F)(F)F.O=S(=O)([O-])C(F)(F)F.c1ccc([P+](CCCCCC[P+](c2ccccc2)(c2ccccc2)[Au-]23[c]4ccccc4-c4cccc([n+]42)-c2cccc[c]23)(c2ccccc2)[Au-]23[c]4ccccc4-c4cccc([n+]42)-c2cccc[c]23)cc1` [3g, [Au2(CNC)2(μ-dpph)](CF3SO3)2], the results for the IC50 in data set [1], in data set [3] and in data set [2] were 3200 ± 500 nM, 3200 ± 400 nM and 4300 ± 900 nM, respectively. Also, in [1], the “IC50 ratio (CNE1/SUNE1)” value amounted to 0.74.
`O=S(=O)([O-])C(F)(F)F.O=S(=O)([O-])C(F)(F)F.O=S(=O)([O-])C(F)(F)F.c1ccc([P+](CC[P+](c2ccccc2)(c2ccccc2)[Au-]23[c]4ccccc4-c4cccc([n+]42)-c2cccc[c]23)(CC[P+](c2ccccc2)(c2ccccc2)[Au-]23[c]4ccccc4-c4cccc([n+]42)-c2cccc[c]23)[Au-]23[c]4ccccc4-c4cccc([n+]42)-c2cccc[c]23)cc1` [3h, [Au3(CNC)3(μ-dpep)](CF3SO3)3]: the concentration for half-maximal inhibition (IC50) is 3800 ± 600 nM in data set [4], 400 ± 50 nM in data set [1], 930 ± 90 nM in [3] and 260 ± 30 nM in [2]. Also, in data set [1], the “IC50 ratio (CNE1/SUNE1)” value is reported as 1.5.
On to `[Cl][Au-]([Cl])([Cl])[Cl].[K+]` [KAuCl4], for which, in [5], the “E° gold(III)→gold(I)” value was −0.4 V.
On to `[Cl-].[Cl][Pt-2]12[n+]3ccccc3-c3cccc([n+]31)-c1cccc[n+]12` [[Pt(terpy)Cl]Cl, reference compound], for which the IC50 in data set [4] amounted to 23000 ± 3000 nM; in data set [1], 13000 ± 2000 nM; in [3], 14000 ± 2000 nM; in [2] it was 11000 ± 3000 nM. The “IC50 ratio (CNE1/SUNE1)” value in data set [1] turned out to be 1.2.
In the same order, the values of `N.N.[Cl][Pt][Cl]` [cisplatin, reference compound] are 1600 ± 200 nM, 3300 ± 500 nM, 11000 ± 1000 nM, 1000 ± 100 nM and 3.3.
Take `O=S(=O)([O-])C(F)(F)F.O=S(=O)([O-])C(F)(F)F.c1ccc([P+](CCC[P+](c2ccccc2)(c2ccccc2)[Au-]23[c]4ccccc4-c4cccc([n+]42)-c2cccc[c]23)(c2ccccc2)[Au-]23[c]4ccccc4-c4cccc([n+]42)-c2cccc[c]23)cc1` [compound 3d, [Au2(CNC)2(μ-dppp)](CF3SO3)2]: the “Effect on cell cycle” value in the data set on SUNE1 cells was “did not significantly affect the cell cycle”. Besides, the IC50 stood at 210 ± 90 nM in data set [4], 91 nM in [1], 43 nM in data set [3] and 55 nM in [2]. Also, the “toxicity to nude mice” value in the data set with nude mice (concentrations 20-fold higher than the effective dose) is listed as “non-toxic”. In addition, in the data set with nude mice (mouse, in vivo), the “DNA mutation upon usage” value is “does not cause DNA mutation”. Further, the “IC50 ratio (CNE1/SUNE1)” value in [1] was found to be 1.7. Further, in data set [6], the “Relative cytotoxicity among metal-free and metallated 1,2-bis(diphenylphosphino)Cn compounds” value was “most cytotoxic”. Besides, the “DNA intercalation (tailing effect in gel)” value in the data set with 100-base pair DNA ladder was “does not bind to DNA by intercalation”. In addition, the “potency against cancers relative to cis-platin” value in the data set with cancers is recorded as “about 200 times”. Further, in data set [7], the “Stability on standing in DMSO or TBS (UV-vis, 31P, 1H NMR)” value was “no UV-vis, ^31P or ^1H NMR spectral changes”.
